Values quoted from earlier work, collected in PMC7751758, “Repurposing Sigma-1 Receptor Ligands for COVID-19 Therapy?” (Frontiers in Pharmacology, 2020).
Several values for one entry are separate records, joined by “and”; a condition that tells them apart may be missing. Identical values can stand only once. Entries after “also recorded” stand apart in the source; their conditions may differ. Like-named read-outs stand apart in the source and are kept apart here.

Experiments:
[1] = tested on: HCV infection; details: without significantly reducing cell biomass; ref Mingorance et al., 2014
[2] = tested on: EBOV
[3] = tested on: SARS-CoV
[4] = tested on: Ebola virus (EBOV)
[5] = tested on: MERS-CoV
[6] = biological target: Sigma-1 receptor; details: for IC50: read-out: Sigma-1 receptor affinity IC50; for Ki: read-out: Sigma-1 receptor affinity Ki
[7] = tested on: EBV; details: infection of B lymphocytes
[8] = tested on: HCV infection of human hepatocarcinoma Huh-7 cells; details: absence of cytotoxicity at low micromolar and submicromolar concentrations; ref Gastaminza et al., 2010
[9] = tested on: CHIKV; details: cytopathic effect induced by Chikungunya virus and other alphaviruses (Semliki Forest virus and Sindbis virus)
[10] = tested on: HCV-induced cytopathic effect on the engineered cell line n4mBid; details: leads of the cell protection screen; ref Chockalingam et al., 2010
[11] = associated with bioaccumulation of the drugs; ref Palmeira et al., 2020
[12] = tested on: COVID-19
[13] = tested on: HCoV-229E; details: replication in cell culture
[14] = tested on: EBOV; details: mouse, in vivo
[15] = tested on: EBOV; details: guinea pig, in vivo
[16] = tested on: SARS-CoV-2 in Huh-7 cells; details: devoid of cytotoxicity, ref Mirabelli et al., 2020
[17] = tested on: H5N1 virus in A549 lung epithelial cells
[18] = tested on: H5N1 virus; details: mouse, in vivo

SMILES: CN1[C@@H]2CC[C@H]1C[C@@H](OC(c1ccccc1)c1ccccc1)C2 [Benztropine]
- reduction of HCV infection [1]: more than one order of magnitude
- Antiviral activity: Virus [2]: active
- Antiviral activity: Virus [3]: in vitro activity; also recorded: SARS-CoV SARS-CoV-2
- cellular toxicity [4]: < 30%
- viral inhibition [4]: > 50%
- Antiviral activity: Virus [5]: in vitro activity

SMILES: CC(CN1c2ccccc2Sc2ccccc21)N(C)C (stereo not drawn) [Promethazine]
- Antiviral activity: Virus [3]: in vitro activity; also recorded: SARS-CoV SARS-CoV-2
- IC50 [6]: 857 nM
- Antiviral activity: Virus ([7]; ref Nemerow and Cooper, 1984, listed as promethazine): inhibit infection of B lymphocytes
- Antiviral activity: Virus [5]: in vitro activity

SMILES: CN(C)CCC=C1c2ccccc2COc2ccccc21 [Doxepin]
- reduction in HCV infection of Huh-7 cells, as compared to the vehicle DMSO control [8]: > 85%
- Antiviral activity: Virus ([9]; ref Pohjala et al., 2011, listed as doxepin): inhibition of the cytopathic effect

SMILES: O=C(c1ccc(OCCN2CCCCC2)cc1)c1c(-c2ccc(O)cc2)sc2cc(O)ccc12 [Raloxifene]
- reduction of HCV infection [1]: more than one order of magnitude
- IC50 [6]: 122 nM
- Ki [6]: 38 nM
- alleviation of HCV-induced cytopathic effect (n4mBid cell viability relative to untreated cells) [10]: increase n4mBid cell viability

SMILES: CCN(CCO)CCCC(C)Nc1ccnc2cc(Cl)ccc12 (stereo not drawn) [Hydroxychloroquine]
- side effects [11]: serious retinopathies and cardiopathies
- Antiviral activity: Virus [3]: in vitro activity
- efficacy in COVID-19 patients ([12]; first clinical studies, ref Geleris et al., 2020, Mitjà et al., Roustit et al.): do not support efficacy
- adverse drug reactions in patients with COVID-19 ([12]; human, in vivo): serious adverse drug reactions
- decreasing the likelihood of death or speeding recovery ([12]; large, randomized clinical trial in hospitalized patients, ref FDA communication, 2020): no benefit
- IC50 [6]: 2120 nM
- Antiviral activity: Virus [5]: in vitro activity

SMILES: CN(C)C(=O)C(CCN1CCC(O)(c2ccc(Cl)cc2)CC1)(c1ccccc1)c1ccccc1 [Loperamide]
- Antiviral activity: Virus ([13]; ref de Wilde et al., 2014, listed as loperamide): inhibited the replication
- Antiviral activity: Virus [3]: inhibited the replication

SMILES: CN(C)CCCN1c2ccccc2CCc2ccc(Cl)cc21 [Clomipramine]
- reduction of HCV infection [1]: more than one order of magnitude
- Antiviral activity: Virus [2]: active
- Antiviral activity: Virus [3]: in vitro activity; also recorded: SARS-CoV SARS-CoV-2
- Antiviral activity: Virus [5]: in vitro activity

SMILES: CCN(CC)CCOc1ccc(C(=C(Cl)c2ccccc2)c2ccccc2)cc1 [Clomiphene]
- reduction of HCV infection [1]: more than one order of magnitude
- Antiviral activity: Virus [2]: active
- cellular toxicity [4]: < 30%
- viral inhibition [4]: > 50%

SMILES: Cc1cccc(C)c1OCC(=O)N[C@@H](Cc1ccccc1)[C@@H](O)C[C@H](Cc1ccccc1)NC(=O)[C@H](C(C)C)N1CCCNC1=O [lopinavir]
- Antiviral activity: Virus ([13]; ref de Wilde et al., 2014): inhibited the replication
- Antiviral activity: Virus [3]: inhibited the replication

SMILES: CC/C(=C(\c1ccccc1)c1ccc(OCCN(C)C)cc1)c1ccccc1 [Tamoxifen]
- reduction of HCV infection [1]: more than one order of magnitude
- Antiviral activity: Virus [3]: in vitro activity; also recorded: SARS-CoV SARS-CoV-2
- Antiviral activity: Virus [5]: in vitro activity

SMILES: CSc1ccc2c(c1)N(CCC1CCCCN1C)c1ccccc1S2 (stereo not drawn) [Thioridazine]
- Antiviral activity: Virus [2]: active
- Antiviral activity: Virus ([9]; ref Pohjala et al., 2011, listed as thioridazine): inhibition of the cytopathic effect

SMILES: O=C(CCCN1CCC(O)(c2ccc(Cl)cc2)CC1)c1ccc(F)cc1 [Haloperidol]
- reduction in HCV infection of Huh-7 cells, as compared to the vehicle DMSO control [8]: > 85%
- Antiviral activity: Virus ([7]; ref Nemerow and Cooper, 1984, listed as haloperidol): inhibit infection of B lymphocytes

SMILES: CC(C)COCC(CN(Cc1ccccc1)c1ccccc1)N1CCCC1 (stereo not drawn) [Bepridil]
- Antiviral activity: Virus [2]: active
- IC50 [6]: 365 nM
- protection in a murine EBOV infection model [14]: protective ability

SMILES: CN1CCN(CCCN2c3ccccc3Sc3ccc(C(F)(F)F)cc32)CC1 [Trifluoperazine]
- reduction in HCV infection of Huh-7 cells, as compared to the vehicle DMSO control [8]: > 85%
- alleviation of HCV-induced cytopathic effect (n4mBid cell viability relative to untreated cells) [10]: increase n4mBid cell viability
- Antiviral activity: Virus ([7]; ref Nemerow and Cooper, 1984, listed as trifluoperazine): inhibit infection of B lymphocytes

SMILES: CN1CCN(CCCN2c3ccccc3Sc3ccc(Cl)cc32)CC1 [Prochlorperazine]
- Antiviral activity: Virus [2]: active
- reduction in HCV infection of Huh-7 cells, as compared to the vehicle DMSO control [8]: > 85%
- cellular toxicity [4]: < 30%
- viral inhibition [4]: > 50%
- Antiviral activity: Virus ([7]; ref Nemerow and Cooper, 1984): inhibit infection of B lymphocytes

SMILES: CC[C@H]1OC(=O)[C@H](C)[C@@H](O[C@H]2C[C@@](C)(OC)[C@@H](O)[C@H](C)O2)[C@H](C)[C@@H](O[C@@H]2O[C@H](C)C[C@H](N(C)C)[C@H]2O)[C@](C)(O)C[C@@H](C)CN(C)[C@H](C)[C@@H](O)[C@]1(C)O [azithromycin]
- survival [15]: none of the tested doses increased survival
- survival of infected mice [14]: increased survival

SMILES: OCCN1CCN(CCCN2c3ccccc3Sc3ccc(Cl)cc32)CC1 [Perphenazine]
- reduction of HCV infection [1]: more than one order of magnitude
- alleviation of HCV-induced cytopathic effect (n4mBid cell viability relative to untreated cells) [10]: increase n4mBid cell viability
- Antiviral activity: Virus ([9]; ref Pohjala et al., 2011, listed as perphenazine): inhibition of the cytopathic effect

SMILES: CCSc1ccc2c(c1)N(CCCN1CCN(C)CC1)c1ccccc1S2 [Thiethylperazine]
- Antiviral activity: Virus [3]: in vitro activity; also recorded: SARS-CoV SARS-CoV-2
- IC50 [6]: 528 nM
- Antiviral activity: Virus [5]: in vitro activity
- Antiviral activity: Virus ([9]; ref Pohjala et al., 2011, listed as thiethylperazine): inhibition of the cytopathic effect

SMILES: CN[C@H]1CC[C@@H](c2ccc(Cl)c(Cl)c2)c2ccccc21 [Sertraline]
- Antiviral activity: Virus [2]: active
- protection in a murine EBOV infection model [14]: protective ability

SMILES: COc1ccc(CCN(C)CCCC(C#N)(c2ccc(OC)c(OC)c2)C(C)C)cc1OC (stereo not drawn) [Verapamil]
- antiviral potency [16]: below 1 µM

SMILES: CN1CCC(CN2c3ccccc3Sc3ccccc32)C1 (stereo not drawn) [Methdilazine]
- IC50 [6]: 167 nM
- Antiviral activity: Virus ([9]; ref Pohjala et al., 2011, listed as methdilazine): inhibition of the cytopathic effect

SMILES: CN(C)CCC=C1c2ccccc2CCc2ccccc21 [Amitriptyline]
- viability of A549 cells infected with H5N1 [17]: increased viability
- infiltrating cell count [18]: reduced
- lung edema and survival [18]: improved
- lung injury [18]: decreased
- IC50 [6]: 216 nM and 300 nM
- Ki [6]: 287 nM
- alleviation of HCV-induced cytopathic effect (n4mBid cell viability relative to untreated cells) [10]: increase n4mBid cell viability; also recorded: inhibit the HCV-induced cytopathic effect

SMILES: CC(C(O)c1ccc(O)cc1)N1CCC(Cc2ccccc2)CC1 (stereo not drawn) [Ifenprodil]
- cell viability in vitro [17]: increased cell viability
- leukocyte infiltration and lung injury [18]: markedly decreased
- survival [18]: improved survival
- IC50 [6]: 5.5 nM
- alleviation of HCV-induced cytopathic effect (n4mBid cell viability relative to untreated cells) [10]: increase n4mBid cell viability; also recorded: inhibit the HCV-induced cytopathic effect

SMILES: CN(C)CCCN1c2ccccc2Sc2ccc(Cl)cc21 [Chlorpromazine]
- Antiviral activity: Virus ([13]; ref de Wilde et al., 2014, listed as chlorpromazine): inhibited the replication
- reduction of HCV infection [1]: more than one order of magnitude
- Antiviral activity: Virus [3]: inhibited the replication; also recorded: in vitro activity; also recorded: SARS-CoVSARS-CoV-2
- Ki [6]: 146 nM
- Antiviral activity: Virus ([7]; ref Nemerow and Cooper, 1984, listed as chlorpromazine): inhibit infection of B lymphocytes
- Antiviral activity: Virus [5]: in vitro activity
- Antiviral activity: Virus ([9]; ref Pohjala et al., 2011, listed as chlorpromazine): inhibition of the cytopathic effect
